In patent US8133887B2, “Oxaphenanthrene derivatives” (Merck Patent GmbH, priority 2005, dated 2012):

Assays:
human CB1 receptor = human CB1 receptor (Homo sapiens, UniProt P21554); assay: CB1 (h) receptor ligand binding (competition)
Source text: (§1) The specific ligand binding to the receptors is defined as the difference between complete binding and non-specific binding determined in the presence of an excess of unlabelled ligand (see, for example, MUNRO, S., THOMAS, K. L. and ABU-SHAAR, M. (1993), Molecular characterisation of a peripheral receptor for cannabinoids.
(§2) The IC50 values (concentration necessary for half-maximum inhibition of the specific control binding) and Hill coefficients (nH) are obtained by non-linear regression analyses of the competition curves, with the curve matching being carried out in accordance with the Hill equation.
(§3) The inhibition constants (Ki) are calculated in accordance with the Cheng Prusoff equation (Ki=IC50/1+(L/KD)).

human CB2 receptor = human CB2 receptor (Homo sapiens, UniProt P34972); assay: CB2 (h) receptor ligand binding (competition)
Sequence of human CB2 receptor (P34972 whole entry): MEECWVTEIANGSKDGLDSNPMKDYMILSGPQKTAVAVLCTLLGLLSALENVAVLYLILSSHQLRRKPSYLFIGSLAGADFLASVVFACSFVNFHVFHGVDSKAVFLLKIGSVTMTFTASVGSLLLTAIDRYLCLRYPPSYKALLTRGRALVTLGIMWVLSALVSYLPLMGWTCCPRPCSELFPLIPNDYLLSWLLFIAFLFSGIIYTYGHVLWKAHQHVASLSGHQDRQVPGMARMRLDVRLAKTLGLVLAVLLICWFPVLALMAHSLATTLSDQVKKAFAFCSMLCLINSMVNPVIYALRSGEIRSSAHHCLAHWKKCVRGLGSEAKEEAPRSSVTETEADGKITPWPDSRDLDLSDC
Source text: as §1, §2, §3

[1] = calculated by Cheng Prusoff equation
[2] = half-maximum inhibition of specific control binding
[3] = non-linear regression of competition curve

Sequence of human CB1 receptor (P21554 whole entry): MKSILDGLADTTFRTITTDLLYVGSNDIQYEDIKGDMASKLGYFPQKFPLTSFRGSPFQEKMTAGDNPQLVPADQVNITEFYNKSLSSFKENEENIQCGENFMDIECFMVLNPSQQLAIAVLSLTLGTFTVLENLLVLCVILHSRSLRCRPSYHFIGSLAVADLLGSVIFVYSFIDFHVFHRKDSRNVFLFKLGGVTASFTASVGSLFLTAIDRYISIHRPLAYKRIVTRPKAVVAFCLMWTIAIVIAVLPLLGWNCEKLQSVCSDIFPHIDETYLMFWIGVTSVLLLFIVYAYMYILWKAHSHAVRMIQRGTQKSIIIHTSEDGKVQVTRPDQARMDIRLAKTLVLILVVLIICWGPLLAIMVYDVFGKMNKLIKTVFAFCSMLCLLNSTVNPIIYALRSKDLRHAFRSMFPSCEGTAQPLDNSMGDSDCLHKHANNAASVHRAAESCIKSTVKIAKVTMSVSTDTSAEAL

## CCCCCc1cc(O)c2c(c1)OC(F)(F)C1CCCCC21 (stereo not drawn) [Compound Ia]
Human CB1 receptor; [1]
  Ki: 1900 nM
Human CB1 receptor; [2]
  IC50: 2200 nM
Human CB1 receptor; [3]
  nH (Hill coefficient): 1.5
Human CB2 receptor; [1]
  Ki: 920 nM
Human CB2 receptor; [2]
  IC50: 1400 nM
Human CB2 receptor; [3]
  nH (Hill coefficient): 0.9
